Results reported in ChEMBL document CHEMBL3352542, “Synthesis, biological evaluation and molecular modeling study of 2-(1,3,4-thiadiazolyl-thio and 4-methyl-thiazolyl-thio)-quinazolin-4-ones as a new class of DHFR inhibitors” (Bioorg Med Chem Lett, 2014).
Activity calls are given as the source filed them. No cut-off for these calls is given here.

Experiments:
Pseudomonas aeruginosa = assay: Antimicrobial activity against Pseudomonas aeruginosa assessed as inhibition zone at 200 ug/disk after 24 hrs by disc-diffusion method; format: functional; conditions: read-out: IZ
MOLT-4 = assay: Growth inhibition of human MOLT4 cells at 10 uM after 48 hrs; format: functional
A549 = assay: Growth inhibition of human A549 cells at 10 uM after 48 hrs; format: functional
MDA-MB-468 = assay: Growth inhibition of human MDA-MB-468 cells at 10 uM after 48 hrs; format: functional
Hs-578T = assay: Growth inhibition of human Hs 578T cells at 10 uM after 48 hrs; format: functional
SF-295 = assay: Growth inhibition of human SF295 cells at 10 uM after 48 hrs; format: functional
Dihydrofolate reductase = molecular target: T1, Dihydrofolate reductase (Bos taurus, UniProt P00376); assay: Inhibition of bovine liver DHFR
T1 sequence (P00376 whole entry): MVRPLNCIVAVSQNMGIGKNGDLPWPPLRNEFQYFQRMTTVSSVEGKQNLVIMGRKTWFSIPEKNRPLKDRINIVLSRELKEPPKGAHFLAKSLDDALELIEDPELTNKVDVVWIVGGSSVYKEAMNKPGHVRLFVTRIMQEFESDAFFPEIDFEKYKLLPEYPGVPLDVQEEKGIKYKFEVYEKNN

NCI-H226 = assay: Growth inhibition of human NCI-H226 cells at 10 uM after 48 hrs; format: functional
COLO 205 = assay: Growth inhibition of human COLO205 cells at 10 uM after 48 hrs; format: functional
Bacillus subtilis = assay: Antimicrobial activity against Bacillus subtilis assessed as inhibition zone at 200 ug/disk after 24 hrs by disc-diffusion method; format: functional; conditions: read-out: IZ
OVCAR-5 = assay: Growth inhibition of human OVCAR5 cells at 10 uM after 48 hrs; format: functional
SNB-75 = assay: Growth inhibition of human SNB75 cells at 10 uM after 48 hrs; format: functional
Malme-3M = assay: Growth inhibition of human MALME-3M cells at 10 uM after 48 hrs; format: functional
HL-60(TB) = assay: Growth inhibition of human HL-60(TB) cells at 10 uM after 48 hrs; format: functional
NCI/ADR-RES = assay: Growth inhibition of human NCI-ADR-RES cells at 10 uM after 48 hrs; format: functional
HT-29 = assay: Growth inhibition of human HT-29 cells at 10 uM after 48 hrs; format: functional
786-0 = assay: Growth inhibition of human 786-0 cells at 10 uM after 48 hrs; format: functional
SF-268 = assay: Growth inhibition of human SF268 cells at 10 uM after 48 hrs; format: functional
BT-549 = assay: Growth inhibition of human BT549 cells at 10 uM after 48 hrs; format: functional
MDA-MB-435 = assay: Growth inhibition of human MDA-MB-435 cells at 10 uM after 48 hrs; format: functional
NCI-H522 = assay: Growth inhibition of human NCI-H522 cells at 10 uM after 48 hrs; format: functional
Staphylococcus aureus = assay: Antimicrobial activity against Staphylococcus aureus assessed as inhibition zone at 200 ug/disk after 24 hrs by disc-diffusion method; format: functional; conditions: read-out: IZ
MDA-MB-231 = assay: Growth inhibition of human MDA-MB-231 cells at 10 uM after 48 hrs; format: functional
PC-3 = assay: Growth inhibition of human PC3 cells at 10 uM after 48 hrs; format: functional
SR = assay: Growth inhibition of human SR cells at 10 uM after 48 hrs; format: functional
ACHN = assay: Growth inhibition of human ACHN cells at 10 uM after 48 hrs; format: functional
UACC-257 = assay: Growth inhibition of human UACC257 cells at 10 uM after 48 hrs; format: functional
NCI-H23 = assay: Growth inhibition of human NCI-H23 cells at 10 uM after 48 hrs; format: functional
Candida albicans = assay: Antimicrobial activity against Candida albicans assessed as inhibition zone at 200 ug/disk after 24 hrs by disc-diffusion method; format: functional; conditions: read-out: IZ
M14 = assay: Growth inhibition of human M14 cells at 10 uM after 48 hrs; format: functional
SN12C = assay: Growth inhibition of human SN12C cells at 10 uM after 48 hrs; format: functional
K562 = assay: Growth inhibition of human K562 cells at 10 uM after 48 hrs; format: functional
LOX IMVI = assay: Growth inhibition of human LOXIMVI cells at 10 uM after 48 hrs; format: functional
UO-31 = assay: Growth inhibition of human UO31 cells at 10 uM after 48 hrs; format: functional
OVCAR-3 = assay: Growth inhibition of human OVCAR3 cells at 10 uM after 48 hrs; format: functional
KM12 = assay: Growth inhibition of human KM12 cells at 10 uM after 48 hrs; format: functional
CAKI-1 = assay: Growth inhibition of human CAKI-1 cells at 10 uM after 48 hrs; format: functional
SF-539 = assay: Growth inhibition of human SF539 cells at 10 uM after 48 hrs; format: functional
HCT-116 = assay: Growth inhibition of human HCT116 cells at 10 uM after 48 hrs; format: functional
OVCAR-4 = assay: Growth inhibition of human OVCAR4 cells at 10 uM after 48 hrs; format: functional
NCI-H460 = assay: Growth inhibition of human NCI-H460 cells at 10 uM after 48 hrs; format: functional
RXF 393 = assay: Growth inhibition of human RXF393 cells at 10 uM after 48 hrs; format: functional
HCC 2998 = assay: Growth inhibition of human HCC2998 cells at 10 uM after 48 hrs; format: functional
HOP-92 = assay: Growth inhibition of human HOP92 cells at 10 uM after 48 hrs; format: functional
TK-10 = assay: Growth inhibition of human TK10 cells at 10 uM after 48 hrs; format: functional
Escherichia coli = assay: Antimicrobial activity against Escherichia coli assessed as inhibition zone at 200 ug/disk after 24 hrs by disc-diffusion method; format: functional; conditions: read-out: IZ
SK-MEL-5 = assay: Growth inhibition of human SK-MEL-5 cells at 10 uM after 48 hrs; format: functional
T47D = assay: Growth inhibition of human T47D cells at 10 uM after 48 hrs; format: functional
HCT-15 = assay: Growth inhibition of human HCT15 cells at 10 uM after 48 hrs; format: functional
SW-620 = assay: Growth inhibition of human SW620 cells at 10 uM after 48 hrs; format: functional
UACC-62 = assay: Growth inhibition of human UACC62 cells at 10 uM after 48 hrs; format: functional
U-251 = assay: Growth inhibition of human U251 cells at 10 uM after 48 hrs; format: functional
OVCAR-8 = assay: Growth inhibition of human OVCAR8 cells at 10 uM after 48 hrs; format: functional
RPMI-8226 = assay: Growth inhibition of human RPMI8226 cells at 10 uM after 48 hrs; format: functional
CCRF-CEM = assay: Growth inhibition of human CCRF-CEM cells at 10 uM after 48 hrs; format: functional
SNB-19 = assay: Growth inhibition of human SNB19 cells at 10 uM after 48 hrs; format: functional
MCF7 = assay: Growth inhibition of human MCF7 cells at 10 uM after 48 hrs; format: functional
A498 = assay: Growth inhibition of human A498 cells at 10 uM after 48 hrs; format: functional

Cc1ccc(-n2c(Sc3sc(N)nc3C)nc3ccc(C)cc3c2=O)cc1
zone of inhibition at 200 µg/disc (Pseudomonas aeruginosa): 8 mm | growth inhibition (GI) (MOLT-4): inactive | growth inhibition (GI) (A549): inactive | growth inhibition (GI) (MDA-MB-468): inactive | growth inhibition (GI) (Hs-578T): inactive | growth inhibition (GI) (SF-295): inactive | IC50 (Dihydrofolate reductase): 7 µM | growth inhibition (GI) (NCI-H226): inactive | growth inhibition (GI) (COLO 205): inactive | zone of inhibition at 200 µg/disc (Bacillus subtilis): 8 mm | growth inhibition (GI) (OVCAR-5): inactive | growth inhibition (GI) (SNB-75): inactive | growth inhibition (GI) (Malme-3M): inactive | growth inhibition (GI) (HL-60(TB)): inactive | growth inhibition (GI) (NCI/ADR-RES): inactive | growth inhibition (GI) (HT-29): inactive | growth inhibition (GI) (786-0): inactive | growth inhibition (GI) (SF-268): inactive | growth inhibition (GI) (BT-549): inactive | growth inhibition (GI) (MDA-MB-435): inactive | growth inhibition (GI) (NCI-H522): inactive | zone of inhibition at 200 µg/disc (Staphylococcus aureus): 8 mm | growth inhibition (GI) (MDA-MB-231): inactive | growth inhibition (GI) (PC-3): inactive | growth inhibition (GI) (SR): inactive | growth inhibition (GI) (ACHN): inactive | growth inhibition (GI) (UACC-257): inactive | growth inhibition (GI) (NCI-H23): inactive | zone of inhibition at 200 µg/disc (Candida albicans): 8 mm | growth inhibition (GI) (M14): inactive | growth inhibition (GI) (SN12C): inactive | growth inhibition (GI) (K562): inactive | growth inhibition (GI) (LOX IMVI): inactive | growth inhibition (GI) (UO-31): inactive | growth inhibition (GI) (OVCAR-3): inactive | growth inhibition (GI) (KM12): inactive | growth inhibition (GI) (CAKI-1): inactive | growth inhibition (GI) (SF-539): inactive | growth inhibition (GI) (HCT-116): inactive | growth inhibition (GI) (OVCAR-4): inactive | growth inhibition (GI) (NCI-H460): inactive | growth inhibition (GI) (RXF 393): inactive | growth inhibition (GI) (HCC 2998): inactive | growth inhibition (GI) (HOP-92): inactive | growth inhibition (GI) (TK-10): inactive | zone of inhibition at 200 µg/disc (Escherichia coli): 8 mm | growth inhibition (GI) (SK-MEL-5): inactive | growth inhibition (GI) (T47D): inactive | growth inhibition (GI) (HCT-15): inactive | growth inhibition (GI) (SW-620): inactive | growth inhibition (GI) (UACC-62): inactive | growth inhibition (GI) (U-251): inactive | growth inhibition (GI) (OVCAR-8): inactive | growth inhibition (GI) (RPMI-8226): inactive | growth inhibition (GI) (CCRF-CEM): inactive | growth inhibition (GI) (SNB-19): inactive | growth inhibition (GI) (MCF7): inactive | growth inhibition (GI) (A498): inactive

COc1cc2nc(Sc3sc(N)nc3C)n(-c3ccc(Cl)cc3)c(=O)c2cc1OC
zone of inhibition at 200 µg/disc (Pseudomonas aeruginosa): 8 mm | growth inhibition (GI) (MOLT-4): inactive | growth inhibition (GI) (A549): inactive | growth inhibition (GI) (MDA-MB-468): inactive | growth inhibition (GI) (Hs-578T): inactive | growth inhibition (GI) (SF-295): inactive | IC50 (Dihydrofolate reductase): 2 µM | growth inhibition (GI) (NCI-H226): inactive | growth inhibition (GI) (COLO 205): inactive | zone of inhibition at 200 µg/disc (Bacillus subtilis): 14 mm | growth inhibition (GI) (OVCAR-5): inactive | growth inhibition (GI) (SNB-75): inactive | growth inhibition (GI) (Malme-3M): inactive | growth inhibition (GI) (HL-60(TB)): inactive | growth inhibition (GI) (NCI/ADR-RES): inactive | growth inhibition (GI) (HT-29): inactive | growth inhibition (GI) (786-0): inactive | growth inhibition (GI) (SF-268): inactive | growth inhibition (GI) (BT-549): inactive | growth inhibition (GI) (MDA-MB-435): inactive | growth inhibition (GI) (NCI-H522): inactive | zone of inhibition at 200 µg/disc (Staphylococcus aureus): 18 mm | growth inhibition (GI) (MDA-MB-231): inactive | growth inhibition (GI) (PC-3): inactive | growth inhibition (GI) (SR): inactive | growth inhibition (GI) (ACHN): inactive | growth inhibition (GI) (UACC-257): inactive | growth inhibition (GI) (NCI-H23): inactive | zone of inhibition at 200 µg/disc (Candida albicans): 8 mm | growth inhibition (GI) (M14): inactive | growth inhibition (GI) (SN12C): inactive | growth inhibition (GI) (K562): inactive | growth inhibition (GI) (LOX IMVI): inactive | growth inhibition (GI) (UO-31): inactive | growth inhibition (GI) (OVCAR-3): inactive | growth inhibition (GI) (KM12): inactive | growth inhibition (GI) (CAKI-1): inactive | growth inhibition (GI) (SF-539): inactive | growth inhibition (GI) (HCT-116): inactive | growth inhibition (GI) (OVCAR-4): inactive | growth inhibition (GI) (NCI-H460): inactive | growth inhibition (GI) (RXF 393): inactive | growth inhibition (GI) (HCC 2998): inactive | growth inhibition (GI) (HOP-92): inactive | growth inhibition (GI) (TK-10): inactive | zone of inhibition at 200 µg/disc (Escherichia coli): 8 mm | growth inhibition (GI) (SK-MEL-5): inactive | growth inhibition (GI) (T47D): inactive | growth inhibition (GI) (HCT-15): inactive | growth inhibition (GI) (SW-620): inactive | growth inhibition (GI) (UACC-62): inactive | growth inhibition (GI) (U-251): inactive | growth inhibition (GI) (OVCAR-8): inactive | growth inhibition (GI) (RPMI-8226): inactive | growth inhibition (GI) (CCRF-CEM): inactive | growth inhibition (GI) (SNB-19): inactive | growth inhibition (GI) (MCF7): inactive | growth inhibition (GI) (A498): inactive
